Molecular target: CDK2 (human) (UniProt P24941)
Assay: Enzyme Assay

Structure (SMILES) | Ki
COc1ccc(Nc2nccc(-c3sc(=O)n(C)c3C)n2)c(OC)c1 | > 10 µM
Cc1c(-c2ccnc(Nc3ccccc3OC(F)F)n2)sc(=O)n1C | 5.36 µM
CCOc1ccccc1Nc1nccc(-c2sc(=O)n(C)c2C)n1 | > 10 µM
Cc1ccccc1Nc1nccc(-c2sc(=O)n(C)c2C)n1 | 0.46 µM
COc1cc(Cl)ccc1Nc1nccc(-c2sc(=O)n(C)c2C)n1 | 2.23 µM
COc1ccc(Nc2nccc(-c3sc(=O)n(C)c3C)n2)cc1 | 0.7 µM
Cc1c(Nc2nccc(-c3sc(=O)n(C)c3C)n2)cccc1NS(C)(=O)=O | 0.19 µM
CCc1ccccc1Nc1nccc(-c2sc(=O)n(C)c2C)n1 | 1.23 µM
Cc1c(-c2ccnc(Nc3ccccc3C(F)(F)F)n2)sc(=O)n1C | > 10 µM
Cc1c(-c2ccnc(Nc3cccc(NS(C)(=O)=O)c3)n2)sc(=O)n1C | 0.03 µM
Cc1ccc(Nc2nccc(-c3sc(=O)n(C)c3C)n2)cc1 | 0.04 µM
Cc1cc(F)ccc1Nc1nccc(-c2sc(=O)n(C)c2C)n1 | 0.49 µM
Cc1cccc(Nc2nccc(-c3sc(=O)n(C)c3C)n2)c1 | 0.02 µM
CCc1ccc(Nc2nccc(-c3sc(=O)n(C)c3C)n2)cc1 | 0.05 µM
Cc1c(-c2ccnc(Nc3ccccc3)n2)sc(=O)n1C | 0.04 µM
COc1ccccc1Nc1nccc(-c2sc(=O)n(C)c2C)n1 | 2.47 µM
CC(=O)c1cccc(Nc2nccc(-c3sc(=O)n(C)c3C)n2)c1 | 0.02 µM
COc1cccc(Nc2nccc(-c3sc(=O)n(C)c3C)n2)c1 | 0.07 µM

Source: the Kinase Knowledgebase extract (Sharma et al. 2016)
